According to patent US20140221472A1, “USE OF MYRICETIN OR DERIVATIVES THEREOF AS A CATHEPSIN K INHIBITOR” (JILINSHENG JINZIYUAN BIOTECHNOLOGY LTD, priority 2013, published 2014):

Assays:
BALB/C mice = assay: Maximum tolerated dose acute toxicity test; type: in vivo; conditions: 100 g/kg body weight, single gavage, observed 2 weeks
Description: BALB/C mice were bred by Harbin Veterinary Research Institute of Experimental Animal Center, Chinese Academy of Agricultural Sciences, and the animal quality permit number is Heilongjiang-SYXK 2006-032. The selection conditions are age at 9 weeks to 10 weeks, weighing about 20 g, half male and half female.
The animal laboratory had regular air ventilation, good lighting, and constant laboratory room temperature. There were five mice per cage, and they were fed with extruded feed produced specifically for mice, with free access to drinking water.
Firstly, the acute toxicity tests were conducted on to evaluate the safety of myricetin in order to provide the basis for the therapeuticapplication of myricetin. In this study, the maximum tolerated dose acute toxicity test was used. Twenty of BALB/C mice with the healthy body weight about 20 g, half male and half femalewere selected, The clinical intended route of administration is oral, so this experiment used intragastric administration. Myricetin (purchased from Shanghai Chemical Co., Ltd. Item No. A0145, Myricetin; 3,5,7,3,4′,5′-hexahydroxyflavone, CAS No: 529-44-2. Pure and natural extracts, purity ismore than 98.5% confirmed by NMR and HPLC purity analysis) was modulated into a stick-like with distilled water. Dosed at […] body weight, gavage was conducted to the mice (about 200 mg myricetin per mouse). […]

[1] = left in air; becomes green; cited from earlier work
[2] = cited from earlier work
cathepsin K [3] = target: T1, cathepsin K (Homo sapiens, UniProt P43235); assay: Cathepsin K activity with fluorogenic substrate HD-Ala-Leu-Lys-AMC; type: biochemical; parameters: made in house; conditions: 100,200,500,1000 uM; fluorescence 390/460 nm; effect enhanced as concentration increased
T1 sequence (P43235 115-329): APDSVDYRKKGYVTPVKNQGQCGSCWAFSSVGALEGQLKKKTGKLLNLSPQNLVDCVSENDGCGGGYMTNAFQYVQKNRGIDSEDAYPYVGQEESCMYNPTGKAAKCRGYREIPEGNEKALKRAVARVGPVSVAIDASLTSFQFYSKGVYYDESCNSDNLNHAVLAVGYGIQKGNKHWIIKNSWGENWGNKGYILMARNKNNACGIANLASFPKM
Procedure: Using a Fluoroskan Ascent, recombinant cathepsin K inhibition ratios with different concentration of myricetin were calculated after completion of the reaction and the IC50 value was determined.
In order to determine the inhibitory effect of myricetin on cathepsin K activity, a cathepsin. K specific fluorogenic substrate HD-Ala-Leu-Lys-AMC (Cat. No. 104881-72-3, purchased from GL Biochem (Shanghai) Co., Ltd.) was used and Cary Eclipse fluorescence spectrophotometer (Agilent Technologies Inc., Beijing) for quantitative analysis was applied. 1 ug of cathepsin K-specific fluorogenic substrate HD-ALK-AMC, 1 ug cathepsin K, myricetin compounds dissolved in 20% ethanol with final concentrations of 100,200,500,1000 uM were added into 50 mM of phosphate buffer. An additional 50 mM of phosphate buffer (pH6.0) was added to bring a total volume of 500 uL. And the reaction sample was inhibited at 37° C. for 15 hours in a water bath. As a positive control without any candidate compound, 1 ug of cathepsin K specific fluorogenic substrate HD-ALK-AMC and 1 ug of cathepsin K, and 50 mmol phosphate buffer solution (pH6.0) were added to bring a total volume of 500 uL. […] After completion of the reaction, the samples were measured at 390 nm excitation wavelength and 460 nm emission wavelength for fluorescence intensity changes assay, and the value of cathepsin K activity was calculated.

[4] = tested on: type II collagen-induced arthritis mice; assay: Bovine type II collagen-induced arthritis in mice; type: in vivo
Procedure: Firstly, same strains and sources of animals as shown in Example 2 were selected, and total 105 of 9-week-old BALB / C mice were fed under the same conditions. There were 70 mice that each had subcutaneous injection of 200 ug of Freund's adjuvant emulsified bovine type II collagen. 15 days after the first immunization, subcutaneous injection was applied again at 200 ug per mouse with incomplete Freund's adjuvant emulsified bovine type H collagen to strengthen the immunity. After 24 days of the first injection, the 70 mice were divided into two groups, of which 35 mice were treated with myricetin intake orally 25 mg/kg body weight daily as a treated-group, while the other 35 were the model control group fed normally without myricetin. The remaining 35 mice were the normal control group without immunization and fed with normal food, used as a blank control.
Throughout the testing period, arthritis conditions of the mice and arthritic conditions after the treatment were observed. After immunization with type II collagen on mice, the conventional methods were used by measuring the degree of paw swelling (thickness) (see FIG. 3) and weight change (see FIG. 4), and myricetin therapeutic effects were monitored and evaluated throughout the procedure (0.5 mm increased thickness for one magnitude) (see FIG. 5).
On the 48 day, the blood from the heart was extracted, and the serum was separated, meanwhile all mice were killed. The mouse urinary deoxypyridinoline (urinary deoxypyridinoline) (see FIG. 6), type I collagen C telopeptide (CTX-I) (see FIG. 7) and serum cartilage oligomeric matrix protein (COMP) were examined, and histological treatment evaluation were conducted (see FIG. 8).
The mouse urinary deoxypyridinolineideoxypyridinoline kit (DPD kit from Shanghai Huyu Biotech Co., Ltd., No. HY-E3170B) was used. According to the instructions provided, iMark-BIO-RAD microplate reader (U.S. BIO-RAD) was used to detect the concentration of mouse urinary deoxypyridinoline at 450 wavelength (see FIG. 6).
Rat C-terminal peptide of type I collagen (CTX-I) ELISA Kit from Shanghai Jima Biotech Co., Ltd., NO Wk30026) was used. According to the method provided by the kit instruction, the change in the content of type I collagen C-terminal peptide in mice serum was detected to evaluate the effect that myricetin prevented type I collagen degradation by suppressing cathepsin K (see FIG. 7).
The cartilage oligomeric matrix protein ELISA kit (from Shanghai Yihan Biotech Co., Ltd., No. SU10580) was used.
After killing of the mice, the paws were fixed with 4% formaldehyde for 24 hours, then decalcificated using 500 mmol of EDTA […]. The paraffin sections were prepared using the conventional method and stained with hematoxylin / eosin staining method. […] The synovial surface almost disappeared with a rough surface in a grid pattern, and there were a large number of macrophages. […] It can be concluded that by myricetin therapeutic administration, the mice arthritis is mostly recovered (see FIG. 9).
Based on mice joint tissue sections, according to methods from Larsson et. al. (Rheumatology (Oxford), 2004, 43 (4),428-434),the therapeutic effect of myricetin on rheumatoid arthritis in mice was evaluated, as well as the degree of arthritis. Main evaluation were based on: (1) the size of the joint cavity, inflammatory cell infiltration, cartilage damage and fibrin deposition. From three individual evaluations, it was divided into three levels, which are 0 for normal, level 1 for the light degree of arthritis, level 2 for the moderate arthritis and level 3 for severe arthritis (see FIGS. 3 and 5). (2) The weight change (see FIG. 4). (3) histology examination (see FIG. 9) and evaluation (see FIGS. 10 and 11).

cathepsin K [5] = target: T1, cathepsin K; assay: Cathepsin K induced collagen degradation, SDS-PAGE screening; type: biochemical; parameters: made in house; host or cells: yeast cells (the cited Linnevers et al. method uses Pichia pastoris); conditions: 100 uM myricetin, collagen type I/II substrate, pH 6.0, 37° C., 15 hours
Description: A series of Chinese herbal medicine of monomer myricetin were purchased from Shanghai Jingke Chemical Co., Ltd.,(Cat. No. A0145, 3,5,7,3′, 4′, 5′-hexahydroxyflavone, CAS No: 529-44-2). It was purified from natural plant (the purity is more than 98.5% confirmed by NMR and HPLC purity assay) and was used as an inhibitor candidate compound. Meanwhile, collagen type I (Cat No. SU2087) and collagen type II (Cat No. SU2088) were purchased from SIGMA and were used as a substrate for cathepsin K. For screening experiments, […] and 1 ug cathepsin K were added into 50 mM phosphate buffer (pH6.0), then myricetin compounds dissolved in 20% ethanol were added with the final concentrations of 100,200,500,1000 uM, respectively, finally an additional 50 mM of phosphate buffer (pH 6.0) was added again to bring a total volume of 500 uL. The reactions were incubated at 37° C. for 15 hours in a water bath. As a positive control without any candidate compound, 100 ug collagen, […], and 50 mM phosphate buffer solution (pH6.0) were added to bring a total volume of 500 uL. […] After completion of the reactions, the reaction samples were applied to 10% SDS-PAGE gel electrophoresis, coomassie blue staining and destaining, and the intensity of the stained protein bands were analyzed. […]

Question: Which results are given for `O=c1c(O)c(-c2cc(O)c(O)c(O)c2)oc2cc(O)cc(O)c12` [myricetin, 3,5,7-Trihydroxy-2-(3,4,5-trihydroxyphenyl)-4H-1-benzopyran-4-one]?
Answer: symptoms of poisoning and death (BALB/C mice): free of any symptoms of poisoning; stability to oxidation [1]: easily oxidized; solubility in chloroform and petroleum ([2]; chloroform and petroleum): insoluble; solubility in methanol, ethanol, aceton, ethyl acetate ([2]; methanol, ethanol, aceton, ethyl acetate): soluble; solubility in water ([2]; water): slightly soluble; inhibitory effect on cathepsin K activity (cathepsin K [3]): significant inhibitory effect; arthritis symptoms (paw swelling, clinical score) ([4]; 25 mg/kg daily orally from day 24 to 48, vs immunized mice): significantly improved; degree of arthritis ([4]; 25 mg/kg p.o., compared with the model group, P<0.05): significantly reduced; concentration of urinary deoxypyridinoline ([4]; 25 mg/kg p.o., day 48, ELISA, vs control group, P<0.001): significantly lower; content of type I collagen C-terminal peptide in mice serum ([4]; 25 mg/kg p.o., day 48, ELISA, vs model control group, P<0.001): significantly lower; content of cartilage oligomeric matrix protein in mice serum ([4]; 25 mg/kg p.o., day 48, ELISA, vs model control group, P<0.005): significantly lower; synovial surface pathological changes (histology) ([4]; 25 mg/kg p.o., day 48, hematoxylin/eosin paw sections): significantly reduced pathological changes; focal hyperplasia of the synovial lining cells ([4]; end of study, ankle joint sections, hematoxylin and eosin, FIG. 9): undetectable; hind leg swelling and redness with ankle joint thickening ([4]; end of study, representative photographs, FIG. 9): attenuated; inhibition of the cathepsin K activity (collagen degradation) (cathepsin K [5]): complete inhibition
